# The source made the active and inactive calls. No cut-off for these calls is given here.
# How the values were obtained:
# Cannabinoid receptor 2 = Cannabinoid receptor 2 (Homo sapiens, UniProt P34972); assay: Agonist activity at human CB2 receptor transfected in CHO cells by [35]GTPgamma binding assay; assay type: cell-based
# [1] = Inhibition of methionine gamma-lyase
# [2] = target: Cannabinoid receptor 1 (Rattus norvegicus) (UniProt P20272); assay: Activity at CB1 receptor in rat cerebellar membrane by [35]GTPgamma binding assay; assay type: functional, cell membranes; conditions: Cerebellum
# Sequence of Cannabinoid receptor 1 (Rattus norvegicus) (P20272 whole entry): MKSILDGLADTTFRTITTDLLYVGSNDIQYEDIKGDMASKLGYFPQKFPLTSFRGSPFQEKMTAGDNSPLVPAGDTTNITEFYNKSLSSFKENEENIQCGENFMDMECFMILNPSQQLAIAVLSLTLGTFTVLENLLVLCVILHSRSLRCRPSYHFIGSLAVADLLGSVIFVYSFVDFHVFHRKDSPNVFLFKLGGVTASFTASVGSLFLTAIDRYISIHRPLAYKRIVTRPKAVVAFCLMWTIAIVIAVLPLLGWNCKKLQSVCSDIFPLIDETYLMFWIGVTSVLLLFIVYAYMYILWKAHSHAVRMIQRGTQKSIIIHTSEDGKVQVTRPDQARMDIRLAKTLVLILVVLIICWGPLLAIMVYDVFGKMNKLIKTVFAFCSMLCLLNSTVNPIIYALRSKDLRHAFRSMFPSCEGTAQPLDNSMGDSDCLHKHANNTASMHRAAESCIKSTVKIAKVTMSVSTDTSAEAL
# [3] = target: T1, Fatty-acid amide hydrolase 1 (Homo sapiens) (UniProt O00519); assay: Inhibition of FAAH
# T1 sequence (whole entry): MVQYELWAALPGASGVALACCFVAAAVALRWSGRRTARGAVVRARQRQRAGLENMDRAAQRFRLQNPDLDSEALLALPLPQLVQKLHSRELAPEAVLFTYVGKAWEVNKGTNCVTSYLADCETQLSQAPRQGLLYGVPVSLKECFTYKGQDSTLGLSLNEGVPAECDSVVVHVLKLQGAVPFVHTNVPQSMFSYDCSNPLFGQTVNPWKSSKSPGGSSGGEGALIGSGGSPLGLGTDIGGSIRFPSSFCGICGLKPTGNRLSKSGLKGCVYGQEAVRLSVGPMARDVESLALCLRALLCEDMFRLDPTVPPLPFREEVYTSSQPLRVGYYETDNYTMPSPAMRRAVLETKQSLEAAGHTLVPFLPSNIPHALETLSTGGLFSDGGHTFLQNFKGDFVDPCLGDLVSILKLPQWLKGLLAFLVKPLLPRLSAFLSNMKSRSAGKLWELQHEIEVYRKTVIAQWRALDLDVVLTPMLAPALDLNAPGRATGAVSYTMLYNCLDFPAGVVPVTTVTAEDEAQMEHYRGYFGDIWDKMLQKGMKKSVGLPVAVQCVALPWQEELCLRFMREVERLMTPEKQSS
# Sequence of Cannabinoid receptor 2 (P34972 whole entry): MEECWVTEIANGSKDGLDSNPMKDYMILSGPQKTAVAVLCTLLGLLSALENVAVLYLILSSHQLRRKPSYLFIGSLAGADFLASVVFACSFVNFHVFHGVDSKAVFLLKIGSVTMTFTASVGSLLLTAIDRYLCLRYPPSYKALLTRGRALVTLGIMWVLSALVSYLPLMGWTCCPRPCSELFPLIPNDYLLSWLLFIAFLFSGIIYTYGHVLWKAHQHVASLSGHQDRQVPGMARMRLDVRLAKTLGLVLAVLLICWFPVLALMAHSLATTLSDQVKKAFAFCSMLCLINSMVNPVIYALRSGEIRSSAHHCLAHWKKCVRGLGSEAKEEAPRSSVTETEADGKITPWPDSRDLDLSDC
smiles,measurement,setting,value
CCCCCCC(C)(C)c1cc(O)c2c(c1)OC(C)(C)[C@H]1CC=C(CO)C[C@H]21,Emax,Cannabinoid receptor 2,103%
O=C(c1cccc(C(F)(F)F)c1)c1nccc2ccccc12,EC50,Cannabinoid receptor 2,5.01 µM
same,Emax,Cannabinoid receptor 2,53%
same,Activity,[1],inactive
same,Activity,[2],inactive
same,Activity,[3],inactive

# Reference: ChEMBL document CHEMBL1139468, “Virtual screening of novel CB2 ligands using a comparative model of the human cannabinoid CB2 receptor” (J Med Chem, 2005)
